{"source": "paper PMC4424274", "about": "“Evaluation of [^11C]CB184 for imaging and quantification of TSPO overexpression in a rat model of herpes encephalitis” (European Journal of Nuclear Medicine and Molecular Imaging, 2015)", "key": {"[1]": {"assay": "Radioactive metabolites of [^11C]CB184 in brain", "format": "in vivo, rat", "conditions": "30 min after injection", "description": "To determine if radioactive metabolites of [^11C]CB184 entered the brain, the brain of one control rat and one HSE rat were isolated 30 min after injection and homogenized with a solution of ice-cold acetonitrile (3 ml). The homogenate was centrifuged at 6,000 rpm (3,461 g) for 10 min. The supernatant was then collected and processed by HPLC, as described above."}, "[2]": {"assay": "Plasma clearance and plasma metabolite analysis", "format": "in vivo, rat", "conditions": "Wistar, rat, in vivo, iv, metabolite-corrected plasma, intravenous injection, rats", "description": "(§1) PET scans with arterial blood sampling were performed in a different set of rats to generate input for pharmacokinetic modelling. For the arterial blood sampling a cannula was inserted into the femoral artery after induction of anaesthesia. The femoral vein was additionally cannulated for PET tracer injection. After cannulation, the rats were positioned in the camera and a transmission scan was acquired using a ^57Co point source. […] A 0.1 ml blood sample of was taken at 0, 5, 10, 15, 20, 30, 45, 60, 75, 90, 120, 180, 300, 450, 600, 900, 1,800 and 3,600 s after injection. A larger blood sample of 0.5 ml was taken at three time points (5, 15, 30 and/or 60 min) for metabolite analysis. After collection of each blood sample, heparinized saline was injected to prevent large changes in blood pressure. A 25 μl aliquot of whole blood was extracted from each sample for radioactivity measurement. The remainder of each sample was centrifuged at 13,000 rpm (15,996 g) for 8 min, and 25 μl plasma was taken for radioactivity measurement. The radioactivity in blood and plasma was measured with a gamma counter.\nRadioactive metabolites in plasma were measured using the extra blood samples taken at three time points during each scan (5, 15, 30 and/or 60 min). After centrifugation and collection of the plasma sample for radioactive measurement, as described above, the remaining plasma was diluted with acetonitrile (1.5 times the amount of plasma) and vortex-mixed. The plasma suspension was centrifuged at 5,300 rpm (3,030 g) for 3 min, and divided into supernatant and pellet. […] Fractions of 30 s were collected and measured in the gamma counter.\nThe percentage of metabolites in plasma was calculated by fitting an exponential function to the values obtained from the HPLC analysis. The plasma values obtained from the blood samples during the PET scan were then corrected for the presence of these metabolites, and used together with the whole-blood curve for further analysis. Metabolite corrected plasma TACs were fitted for each individual rat using iterative nonlinear least-squares fitting to the biexponential equation: SUVt = Ae^−αt + Be^−βt, where SUVt is the plasma SUV at time t, α and β are the apparent distribution and elimination rate constants (s^−1), respectively, and A and B are the corresponding zero-time intercepts. The weighting factors were the reciprocals of the plasma SUV squared. Distribution and elimination half-lives (seconds) were calculated as the natural logarithm of 2 divided by α and β, respectively."}, "TSPO [3]": {"target": "TSPO", "set-up": "method as in PMID 25616581", "conditions": "cited from earlier work"}, "TSPO [4]": {"system": "TSPO", "set-up": "method as in PMID 25616581", "conditions": "6-hydroxydopamine-injured striatum in rats; cited from earlier work"}, "TSPO [5]": {"target": "T1, TSPO (Rattus norvegicus, UniProt P16257)", "T1 construct": "from tissue; host or cells: Brain regions and peripheral organs of male Wistar rats, measured in vivo by PET and ex vivo by gamma counting", "assay": "Kinetic modelling of PET data (2TCMR, Logan): BPND and VT", "format": "in vivo", "description": "as §1\nThe TACs of those rats in which blood sampling was performed, together with their corresponding whole-blood and metabolite-corrected plasma curves, were used for pharmacokinetic modelling using PMOD v3.3 (PMOD Technologies, Zürich, Switzerland). […] The reversible two-tissue compartment model (2TCMR) with K 1/k 2 fixed to the whole cortex value and a fixed blood volume of 3 % were used to calculate the V T and nondisplaceable binding potential (BPND, calculated as k 3/k 4 [29])."}, "[6]": {"conditions": "lipophilicity; cited from earlier work"}, "[7]": {"conditions": "control rats (PBS group), k3/k4"}}, "note": "Several values for one entry are separate records, joined by “and”; a condition that tells them apart may be missing. Equal entries are not always repeated. Where two headings read alike, the source gives them in different places."}
{"smiles": "CCCN(CCC)C(=O)Cc1c(-c2ccc(O[11CH3])cc2)nc2c(Cl)cc(Cl)cn12", "note": "[[^11C]CB184]", "values": [{"measurement": "Percentage of intact tracer present in the brain", "setting": "[1]", "value": "approximately 99%"}, {"measurement": "half-life", "setting": "[2]; read-out: Distribution half-life in plasma (converted)", "value": 0.283, "unit": "min"}, {"measurement": "half-life", "setting": "[2]; read-out: Elimination half-life in plasma", "value": "44 ± 26", "unit": "min"}, {"measurement": "Ki", "setting": "TSPO [3]; read-out: K i (TSPO affinity)", "value": 540, "unit": "pM"}, {"measurement": "TSPO affinity relative to (R)-[^11C]PK11195", "setting": "TSPO [3]; times higher affinity, ratio of K i values", "value": 7.9, "unit": "times"}, {"measurement": "Inflammation-induced binding as compared with (R)-[^11C]PK11195", "setting": "TSPO [4]", "value": "comparable"}, {"measurement": "Binding potential (BPND), Cerebellum", "setting": "TSPO [5]; HSE group, k3/k4", "value": "3.83 ± 0.63"}, {"measurement": "Binding potential (BPND), Frontal cortex", "setting": "TSPO [5]; HSE group, k3/k4", "value": "3.08 ± 1.20"}, {"measurement": "Binding potential (BPND), Hippocampus", "setting": "TSPO [5]; HSE group, k3/k4", "value": "2.44 ± 0.34"}, {"measurement": "Binding potential (BPND), Midbrain", "setting": "TSPO [5]; HSE group, k3/k4", "value": "2.50 ± 0.51"}, {"measurement": "Binding potential (BPND), Olfactory bulb", "setting": "TSPO [5]; HSE group, k3/k4", "value": "8.82 ± 2.97"}, {"measurement": "Binding potential (BPND), Rest cortices", "setting": "TSPO [5]; HSE group, k3/k4", "value": "2.69 ± 0.47"}, {"measurement": "Binding potential (BPND), Striatum", "setting": "TSPO [5]; HSE group, k3/k4", "value": "1.91 ± 0.41"}, {"measurement": "Binding potential (BPND), Thalamus", "setting": "TSPO [5]; HSE group, k3/k4", "value": "1.85 ± 0.41"}, {"measurement": "Binding potential (BPND), Whole brain", "setting": "TSPO [5]; HSE group, k3/k4", "value": "3.25 ± 0.41"}, {"measurement": "Binding potential (BPND), Amygdala", "setting": "TSPO [5]; [7]", "value": "2.4 ± 1.2 and 2.39 ± 1.23"}, {"measurement": "Binding potential (BPND), Cerebellum", "setting": "TSPO [5]; [7]", "value": "2.88 ± 1.39"}, {"measurement": "Binding potential (BPND), Frontal cortex", "setting": "TSPO [5]; [7]", "value": "2.14 ± 1.23"}, {"measurement": "Binding potential (BPND), Hippocampus", "setting": "TSPO [5]; [7]", "value": "1.55 ± 0.90"}, {"measurement": "Binding potential (BPND), Hypothalamus", "setting": "TSPO [5]; [7]", "value": "2.7 ± 1.6 and 2.74 ± 1.62"}, {"measurement": "Binding potential (BPND), Medulla", "setting": "TSPO [5]; [7]", "value": "2.6 ± 1.2 and 2.64 ± 1.16"}, {"measurement": "Binding potential (BPND), Midbrain", "setting": "TSPO [5]; [7]", "value": "1.73 ± 0.98"}, {"measurement": "Binding potential (BPND), Olfactory bulb", "setting": "TSPO [5]; [7]", "value": "5.56 ± 2.67"}, {"measurement": "Binding potential (BPND), Pons", "setting": "TSPO [5]; [7]", "value": "2.6 ± 1.3 and 2.63 ± 1.31"}, {"measurement": "Binding potential (BPND), Rest cortices", "setting": "TSPO [5]; [7]", "value": "2.27 ± 1.37"}, {"measurement": "Binding potential (BPND), Septum", "setting": "TSPO [5]; [7]", "value": "1.5 ± 0.9 and 1.53 ± 0.90"}, {"measurement": "Binding potential (BPND), Striatum", "setting": "TSPO [5]; [7]", "value": "1.28 ± 0.74"}, {"measurement": "Binding potential (BPND), Thalamus", "setting": "TSPO [5]; [7]", "value": "1.17 ± 0.78"}, {"measurement": "Binding potential (BPND), Whole brain", "setting": "TSPO [5]; [7]", "value": "2.25 ± 1.17"}, {"measurement": "Increase of BPND in the medulla, HSE rats vs. control rats", "setting": "TSPO [5]; medulla", "value": 93, "unit": "%"}, {"measurement": "logP", "setting": "[6]", "value": 2.06}]}
